Literature values as cited in US20230241051A1, “LONG-ACTING FORMULATIONS” (Janssen Pharmaceutica NV, priority 2020, published 2023).

Tests used:
Conditions in all cases: cited from earlier work
[1] = target: mycobacterial ATP synthase (Mycobacterium tuberculosis, UniProt P9WPS1+P9WPV7)
M. tuberculosis = test system: M. tuberculosis
Mycobacterium leprae = test system: Mycobacterium leprae

Chain of mycobacterial ATP synthase (P9WPS1 whole entry, looked up): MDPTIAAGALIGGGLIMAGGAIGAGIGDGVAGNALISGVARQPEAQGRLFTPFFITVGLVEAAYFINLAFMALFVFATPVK
Chain of mycobacterial ATP synthase (P9WPV7 whole entry, looked up): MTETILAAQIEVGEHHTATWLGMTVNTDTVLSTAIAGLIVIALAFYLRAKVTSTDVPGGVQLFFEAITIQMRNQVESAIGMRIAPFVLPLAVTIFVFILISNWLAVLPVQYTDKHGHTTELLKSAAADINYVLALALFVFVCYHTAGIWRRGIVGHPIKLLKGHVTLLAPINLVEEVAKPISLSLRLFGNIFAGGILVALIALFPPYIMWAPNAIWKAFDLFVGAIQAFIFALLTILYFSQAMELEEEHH

**Q.** For `COc1nc2ccc(Br)cc2cc1[C@@H](c1ccccc1)[C@@](O)(CCN(C)C)c1cccc2ccccc12` [bedaquiline], which “selectivity index for mycobacterial ATP synthase versus eukaryotic mitochondrial ATP synthase” value [1] is on record?
**A.** more than 20000

**Q.** What about the “minimal dose killing 99% of bacilli” value (M. tuberculosis) of the same compound?
**A.** 30 mg/kg/wk

**Q.** What about the “minimal dose killing 99% of bacilli” value (Mycobacterium leprae; M. lepra) of the same compound?
**A.** < 5.0 mg/kg/wk

**Q.** What about the “activity against Mycobacterium leprae” value (Mycobacterium leprae; mice) of the same compound?
**A.** bactericidal
